We go through one molecule from article PMC10176470, “Engaging a Non-catalytic Cysteine Residue Drives Potent and Selective Inhibition of Caspase-6” (Journal of the American Chemical Society, 2023).

Holding throughout (test): SILAC proteomics / in-gel fluorescence, competition of probe 13-t labeling by 3a
Assay [1] has as its target proteins of HEK293T cells transiently overexpressing caspase-6 (Homo sapiens, UniProt P60842). The conditions noted are these: Comp; protein EIF4A1 P60842.
The target in assay [2] is proteins of HEK293T cells transiently overexpressing caspase-6 (Homo sapiens, UniProt Q15393). Conditions: Comp; protein SF3B3 Q15393.
proteins of HEK293T cells transiently overexpressing caspase-6 (Homo sapiens, UniProt Q15393), sequence (Q15393 whole entry): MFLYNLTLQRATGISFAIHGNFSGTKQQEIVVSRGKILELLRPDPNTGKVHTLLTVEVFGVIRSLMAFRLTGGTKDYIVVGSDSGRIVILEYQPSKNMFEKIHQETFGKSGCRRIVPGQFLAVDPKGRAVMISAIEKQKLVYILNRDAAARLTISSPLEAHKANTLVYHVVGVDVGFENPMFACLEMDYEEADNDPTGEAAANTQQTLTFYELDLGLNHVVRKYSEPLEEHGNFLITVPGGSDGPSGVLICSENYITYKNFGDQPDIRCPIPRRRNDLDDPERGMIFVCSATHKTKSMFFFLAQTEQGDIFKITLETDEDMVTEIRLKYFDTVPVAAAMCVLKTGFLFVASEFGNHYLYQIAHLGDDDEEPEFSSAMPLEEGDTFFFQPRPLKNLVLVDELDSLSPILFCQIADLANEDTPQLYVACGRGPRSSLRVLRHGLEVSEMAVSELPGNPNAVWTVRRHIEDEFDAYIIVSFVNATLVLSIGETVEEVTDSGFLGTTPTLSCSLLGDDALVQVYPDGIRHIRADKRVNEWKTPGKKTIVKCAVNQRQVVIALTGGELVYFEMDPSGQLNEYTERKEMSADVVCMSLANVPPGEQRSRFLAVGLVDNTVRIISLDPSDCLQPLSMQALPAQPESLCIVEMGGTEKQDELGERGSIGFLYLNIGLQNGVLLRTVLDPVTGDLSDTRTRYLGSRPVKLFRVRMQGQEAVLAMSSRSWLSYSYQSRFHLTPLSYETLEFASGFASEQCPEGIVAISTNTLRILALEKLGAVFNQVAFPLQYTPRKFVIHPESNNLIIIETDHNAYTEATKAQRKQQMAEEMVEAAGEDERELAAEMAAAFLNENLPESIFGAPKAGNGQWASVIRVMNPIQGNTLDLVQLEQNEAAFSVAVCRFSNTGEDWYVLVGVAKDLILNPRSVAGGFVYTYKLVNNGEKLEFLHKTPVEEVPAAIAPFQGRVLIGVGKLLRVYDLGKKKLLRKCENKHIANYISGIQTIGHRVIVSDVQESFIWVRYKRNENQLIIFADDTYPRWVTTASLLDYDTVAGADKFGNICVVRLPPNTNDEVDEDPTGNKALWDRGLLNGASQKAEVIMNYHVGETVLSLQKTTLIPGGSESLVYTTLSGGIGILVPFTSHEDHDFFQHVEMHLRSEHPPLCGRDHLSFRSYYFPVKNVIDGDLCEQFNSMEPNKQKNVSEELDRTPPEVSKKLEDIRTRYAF
In assay [3] the target is T1, proteins of HEK293T cells transiently overexpressing caspase-6 (Homo sapiens, UniProt Q9UQ80).
T1 sequence (Q9UQ80 1-394): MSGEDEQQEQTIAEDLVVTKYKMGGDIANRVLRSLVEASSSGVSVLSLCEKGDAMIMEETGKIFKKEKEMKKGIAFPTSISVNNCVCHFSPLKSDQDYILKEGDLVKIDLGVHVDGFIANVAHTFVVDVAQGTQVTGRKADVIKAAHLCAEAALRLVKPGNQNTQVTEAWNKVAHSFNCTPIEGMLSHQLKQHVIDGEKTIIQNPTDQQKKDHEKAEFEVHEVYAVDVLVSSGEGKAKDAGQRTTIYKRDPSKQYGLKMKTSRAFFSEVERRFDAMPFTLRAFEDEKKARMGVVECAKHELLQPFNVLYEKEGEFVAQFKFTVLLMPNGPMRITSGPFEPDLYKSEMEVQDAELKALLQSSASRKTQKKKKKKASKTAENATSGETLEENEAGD
Conditions: Comp; protein PA2G4 Q9UQ80.

Assay [4] has as its target T2, proteins of HEK293T cells transiently overexpressing caspase-6 (Homo sapiens, UniProt P14324).
T2 sequence (P14324 1-419): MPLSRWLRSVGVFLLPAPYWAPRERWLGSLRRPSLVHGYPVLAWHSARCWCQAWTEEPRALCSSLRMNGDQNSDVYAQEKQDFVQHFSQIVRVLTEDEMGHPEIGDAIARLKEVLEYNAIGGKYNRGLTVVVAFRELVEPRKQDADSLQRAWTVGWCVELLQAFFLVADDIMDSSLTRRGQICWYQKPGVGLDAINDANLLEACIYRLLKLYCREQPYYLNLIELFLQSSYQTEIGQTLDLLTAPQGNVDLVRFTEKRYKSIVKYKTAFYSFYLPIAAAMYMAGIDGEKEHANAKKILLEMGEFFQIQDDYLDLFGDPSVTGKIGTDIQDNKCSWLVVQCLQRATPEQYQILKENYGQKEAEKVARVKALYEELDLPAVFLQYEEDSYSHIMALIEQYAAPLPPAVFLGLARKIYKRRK

In assay [5] the target is proteins of HEK293T cells transiently overexpressing caspase-6 (Homo sapiens, UniProt P55884). The conditions noted are these: Comp; protein EIF3B P55884.
proteins of HEK293T cells transiently overexpressing caspase-6 (Homo sapiens, UniProt P55884), sequence (P55884 whole entry): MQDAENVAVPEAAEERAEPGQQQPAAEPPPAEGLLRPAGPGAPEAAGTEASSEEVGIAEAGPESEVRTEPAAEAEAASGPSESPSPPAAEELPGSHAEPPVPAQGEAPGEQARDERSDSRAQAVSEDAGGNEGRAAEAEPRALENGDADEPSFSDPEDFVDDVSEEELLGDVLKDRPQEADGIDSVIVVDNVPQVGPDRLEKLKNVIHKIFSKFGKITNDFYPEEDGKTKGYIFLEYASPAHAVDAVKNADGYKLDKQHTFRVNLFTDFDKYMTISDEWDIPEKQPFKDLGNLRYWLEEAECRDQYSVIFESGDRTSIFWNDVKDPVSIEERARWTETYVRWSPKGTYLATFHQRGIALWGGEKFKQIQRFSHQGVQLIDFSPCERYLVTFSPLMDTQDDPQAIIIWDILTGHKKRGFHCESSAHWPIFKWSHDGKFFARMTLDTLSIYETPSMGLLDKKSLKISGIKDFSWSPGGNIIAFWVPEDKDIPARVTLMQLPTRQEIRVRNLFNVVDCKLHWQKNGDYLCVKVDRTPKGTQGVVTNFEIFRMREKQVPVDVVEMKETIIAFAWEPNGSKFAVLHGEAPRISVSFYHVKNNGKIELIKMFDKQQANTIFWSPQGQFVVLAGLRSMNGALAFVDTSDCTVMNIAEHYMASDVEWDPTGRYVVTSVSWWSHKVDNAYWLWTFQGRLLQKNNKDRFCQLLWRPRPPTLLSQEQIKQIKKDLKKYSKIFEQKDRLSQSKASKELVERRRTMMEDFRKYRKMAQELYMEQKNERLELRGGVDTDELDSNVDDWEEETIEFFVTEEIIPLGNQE
Assay [6] deals with T3, proteins of HEK293T cells transiently overexpressing caspase-6 (Homo sapiens, UniProt Q99832).
T3 sequence (Q99832 1-543): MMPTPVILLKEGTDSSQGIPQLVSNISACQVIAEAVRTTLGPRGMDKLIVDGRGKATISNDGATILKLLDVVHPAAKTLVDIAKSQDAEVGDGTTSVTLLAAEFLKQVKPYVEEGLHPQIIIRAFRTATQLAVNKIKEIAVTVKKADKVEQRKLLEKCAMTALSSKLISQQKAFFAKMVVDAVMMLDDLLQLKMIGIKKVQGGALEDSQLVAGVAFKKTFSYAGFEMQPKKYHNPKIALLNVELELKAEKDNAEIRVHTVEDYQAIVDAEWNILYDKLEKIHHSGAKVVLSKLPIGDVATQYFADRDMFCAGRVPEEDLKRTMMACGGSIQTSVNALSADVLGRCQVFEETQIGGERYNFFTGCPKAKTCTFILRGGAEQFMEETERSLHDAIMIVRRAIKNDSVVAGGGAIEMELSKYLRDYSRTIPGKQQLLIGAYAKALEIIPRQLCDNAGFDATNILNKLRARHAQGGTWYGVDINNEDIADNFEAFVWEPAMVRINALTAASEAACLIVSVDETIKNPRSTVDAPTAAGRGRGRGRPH
Conditions: Comp; protein CCT7 Q99832.

Assay [7] addresses T4, proteins of HEK293T cells transiently overexpressing caspase-6 (Homo sapiens, UniProt P54136).
T4 sequence (P54136 1-660): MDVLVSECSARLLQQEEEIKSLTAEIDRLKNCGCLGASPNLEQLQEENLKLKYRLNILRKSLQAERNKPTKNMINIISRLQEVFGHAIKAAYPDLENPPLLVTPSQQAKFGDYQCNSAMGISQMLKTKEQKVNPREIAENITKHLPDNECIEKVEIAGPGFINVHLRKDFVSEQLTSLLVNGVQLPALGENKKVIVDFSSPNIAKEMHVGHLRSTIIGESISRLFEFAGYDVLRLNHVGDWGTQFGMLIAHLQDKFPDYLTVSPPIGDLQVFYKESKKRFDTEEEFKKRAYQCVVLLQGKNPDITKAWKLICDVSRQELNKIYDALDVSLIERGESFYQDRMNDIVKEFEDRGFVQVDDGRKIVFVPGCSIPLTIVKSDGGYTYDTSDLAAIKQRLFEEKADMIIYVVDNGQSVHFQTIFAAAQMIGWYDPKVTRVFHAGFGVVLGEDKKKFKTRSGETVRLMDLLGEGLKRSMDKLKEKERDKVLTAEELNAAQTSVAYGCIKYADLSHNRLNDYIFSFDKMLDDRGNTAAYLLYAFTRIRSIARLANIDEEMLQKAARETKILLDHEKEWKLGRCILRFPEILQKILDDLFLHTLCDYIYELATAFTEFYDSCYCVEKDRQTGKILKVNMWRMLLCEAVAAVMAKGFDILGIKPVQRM

Assay [8] addresses proteins of HEK293T cells transiently overexpressing caspase-6 (Homo sapiens, UniProt P12004). Conditions: Comp; protein PCNA P12004.
[9] abbreviates: protein FDPS (P14324), Exp Comp, analysis C6, p 0.2500, 4 peptides.
The mark [10] stands for this setting: protein RARS (P54136), Exp Comp, analysis C6, p 0.0312, 7 peptides.

proteins of HEK293T cells transiently overexpressing caspase-6 (Homo sapiens, UniProt P12004), sequence (P12004 whole entry): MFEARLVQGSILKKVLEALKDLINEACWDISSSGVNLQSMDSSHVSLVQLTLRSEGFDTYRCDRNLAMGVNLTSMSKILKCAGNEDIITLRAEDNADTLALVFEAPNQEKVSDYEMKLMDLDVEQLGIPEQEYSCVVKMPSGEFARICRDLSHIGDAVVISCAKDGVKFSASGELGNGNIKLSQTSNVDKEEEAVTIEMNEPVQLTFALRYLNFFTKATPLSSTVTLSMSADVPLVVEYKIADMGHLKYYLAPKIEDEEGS
proteins of HEK293T cells transiently overexpressing caspase-6 (Homo sapiens, UniProt P60842), sequence (P60842 whole entry): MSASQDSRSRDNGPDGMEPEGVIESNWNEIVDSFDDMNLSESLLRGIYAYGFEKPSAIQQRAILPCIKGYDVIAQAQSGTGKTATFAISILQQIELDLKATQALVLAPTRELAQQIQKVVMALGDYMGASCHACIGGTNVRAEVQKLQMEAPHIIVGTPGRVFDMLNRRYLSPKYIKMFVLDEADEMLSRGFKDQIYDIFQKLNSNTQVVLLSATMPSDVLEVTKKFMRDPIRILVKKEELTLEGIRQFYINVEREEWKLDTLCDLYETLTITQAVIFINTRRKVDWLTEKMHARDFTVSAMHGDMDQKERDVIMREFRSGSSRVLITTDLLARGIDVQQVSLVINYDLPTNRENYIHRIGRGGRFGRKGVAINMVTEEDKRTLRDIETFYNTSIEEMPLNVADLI

With `C=CS(=O)(=O)N1C[C@H](C(=O)Nc2ccc(OC(F)(F)F)cc2)C[C@@H](c2ccccc2)C1` [3a], the enrich.exp.med in assay [1] is given as 0.5985; in assay [2] it was 0.5835; in assay [3] it was 0.7436; in assay [4] (Comp, protein FDPS P14324), 1.087; in assay [5], 0.6413; in assay [6], 0.6137. The enrich.exp.med in assay [7] (Comp, protein RARS P54136) was found to be 1.077; in assay [8], 0.6316. In addition, the figures for the enrich.exp.med.lin in assay [4] (setting [9]) and in assay [7] (setting [10]) were 2.124 and 2.11, respectively. The values for the enrich.exp.med.log2 in assay [4] (setting [9]) and in assay [7] (setting [10]) were 1.087 and 1.077, respectively.
